The source of these data is EP3981864A1, “DETERGENT COMPOSITION” (priority 2020, dated 2022).

Assay [1] relates to Medicago truncatula αDOX (SEQ ID NO: 9), fatty acid alpha-dioxygenase, A4PRI0, N-terminal His-tag variant SEQ ID NO: 265 (comparative). Kind of assay: Alpha-dioxygenase activity assay (oxygen consumption, TON). The assay is classed as biochemical. The settings on record: fatty acid 100 µM, enzyme 6 ppm, 50 mM HEPES pH 9.0, 37°C; initial rate of oxygen consumption / enzyme concentration. The text has this: (§1) Medicago truncatula αDOX (SEQ ID NO: 9) is a fatty acid alpha-dioxygenase that converts fatty acids into the corresponding 2-hydroperoxy fatty acids and is included as a comparative example of the present invention. A codon optimized gene (SEQ ID NO: 264) encoding for an alpha-dioxygenase variant (SEQ ID NO: 265), including an N-terminal amino acid sequence containing a His-tag was designed and synthesized by Genscript. After gene synthesis, the protein was expressed and purified. In brief, the complete synthetic gene sequence was subcloned into a pET30a vector using the NdeI/HindIII cloning sites. For heterologous expression, Escherichia coli BL21 (DE3) cells were transformed with the recombinant plasmid and a single colony was inoculated into LB medium containing kanamycin (50 mg/L). A pre-starter culture was then inoculated into flasks containing Magic Media (Thermo Fisher, Catalog # K6803) supplemented with kanamycin (50 mg/L) and incubated at 16 °C for 72 h. At an OD600nm = 0.5 - 1.0, 5-aminolevulinic acid (final concentration 0.5 mM) was added. Cells were harvested by centrifugation at 5000 rpm and 4°C and the pellet was lysed using a bacterial cell lysis buffer (B-PER - Themo Fisher, Waltham, MA). After centrifugation, the supernatant was collected, and the protein was purified by one-step purification using HisPur™ Ni-NTA Spin Columns (Thermo Scientific, Catalog # 88226) and standard protocols known in the art. The protein was concentrated using a 10 kDa MW cutoff Amicon Ultra centrifugal filter unit (Millipore Sigma, Catalog# UFC901024), followed by desalting using a disposable PD-10 desalting column (GE Healthcare Life Sciences, Catalog# 17085101) and a buffer containing 50 mM Tris-HCl, 500 mM NaCl, and 10% Glycerol at pH 8.0. […]
(§2) Reactions with alpha-dioxygenases were performed as follows. […] The reaction was incubated for up to 10 minutes at 37°C with 200 rpm agitation and the conversion was monitored using an oxygen sensor. The TON (in s-1) were calculated as the ratio between the initial rate of oxygen consumption (in µM/s) and the concentration of enzyme (in µM). […]

In assay [2] the target is T1, Nicotiana tabacum αDOX (SEQ ID NO: 6), fatty acid alpha-dioxygenase, 082031, N-terminal His-tag variant SEQ ID NO: 259 (Nicotiana tabacum, UniProt A0A1S3ZX38).
T1 construct: made in house; host or cells: Escherichia coli BL21 (DE3), pET30a
T1 sequence (A0A1S3ZX38 1-643): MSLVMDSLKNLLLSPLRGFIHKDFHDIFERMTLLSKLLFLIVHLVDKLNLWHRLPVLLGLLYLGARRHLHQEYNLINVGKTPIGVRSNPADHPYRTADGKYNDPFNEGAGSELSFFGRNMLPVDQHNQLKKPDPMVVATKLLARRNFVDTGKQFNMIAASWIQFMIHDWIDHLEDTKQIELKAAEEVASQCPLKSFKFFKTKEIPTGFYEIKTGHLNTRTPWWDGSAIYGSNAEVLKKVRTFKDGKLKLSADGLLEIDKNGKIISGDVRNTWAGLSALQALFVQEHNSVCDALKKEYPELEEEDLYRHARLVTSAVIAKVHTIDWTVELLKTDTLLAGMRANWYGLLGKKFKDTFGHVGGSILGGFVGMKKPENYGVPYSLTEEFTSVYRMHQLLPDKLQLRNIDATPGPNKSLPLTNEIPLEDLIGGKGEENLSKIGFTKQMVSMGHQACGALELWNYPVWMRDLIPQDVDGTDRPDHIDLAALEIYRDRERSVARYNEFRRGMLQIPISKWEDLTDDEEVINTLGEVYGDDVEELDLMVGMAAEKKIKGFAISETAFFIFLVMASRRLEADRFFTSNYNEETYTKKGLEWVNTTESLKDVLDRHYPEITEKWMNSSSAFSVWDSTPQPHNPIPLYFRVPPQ
Described as above. In kind it is biochemical. The note with it: fatty acid 100 µM, enzyme 6 ppm, 50 mM HEPES pH 9.0, 37°C; initial rate of oxygen consumption / enzyme concentration.
Source text: as §1, with “Nicotiana tabacum” for “Medicago truncatula”, “6)” for “9)”, “an” for “a comparative”, “258)” for “264)”, “259),” for “265),”
as §2

As to `CCCCCCCC/C=C\CCCCCCCC(=O)O` [Oleic Acid], the “Oleic Acid, TON” value in assay [1] turned out to be 0.06 s⁻¹; in assay [2], 0.78 s⁻¹.

For `CCCCCCCCCCCCCCCC(=O)O` [Palmitic Acid], the “Palmitic Acid, TON” value was 0.57 s⁻¹ in assay [1] and 3.07 s⁻¹ in assay [2].

As for `CCCCCCCCCCCCCCCCCC(=O)O` [Stearic Acid], the “Stearic Acid, TON” value was 0.02 s⁻¹ in assay [1] and 2.66 s⁻¹ in assay [2].
